Assay results: US8859608B2, “Spiro amino compounds suitable for the treatment of inter alia sleep disorders and drug addiction” (Rottapharm Biotech S.R.L., priority 2009, dated 2014)

target: T1, human OX1 receptor (Homo sapiens, UniProt O43613); test: FLIPR measurement of intracellular calcium, antagonistic activity at OX1; conditions: pKb OX1, CHO cells with human recombinant OX1, activated with orexin-A 3 nM; 1 nM-1 μM range; modified Cheng Prusoff
T1 sequence (O43613 1-425): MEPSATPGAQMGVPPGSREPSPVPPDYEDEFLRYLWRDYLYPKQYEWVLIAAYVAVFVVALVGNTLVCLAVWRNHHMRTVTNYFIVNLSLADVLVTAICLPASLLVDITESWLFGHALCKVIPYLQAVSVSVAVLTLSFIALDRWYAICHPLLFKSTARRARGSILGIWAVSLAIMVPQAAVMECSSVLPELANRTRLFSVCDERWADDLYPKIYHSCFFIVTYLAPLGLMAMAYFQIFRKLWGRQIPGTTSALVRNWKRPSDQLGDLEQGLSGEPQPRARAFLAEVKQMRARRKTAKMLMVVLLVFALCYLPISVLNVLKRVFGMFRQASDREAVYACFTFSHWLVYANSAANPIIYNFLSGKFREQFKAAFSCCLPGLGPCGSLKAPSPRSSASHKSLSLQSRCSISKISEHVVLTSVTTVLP
Experimental: Thus the plate was loaded with the calcium dye (Fluo-4NW/probenecid in HBSS, Hepes 20 mM, pH 7,4; Invitrogen) at 37° C. for 60 min. Afterward the temperature was equilibrated at 22° C. for 15 min and the [Ca2+]i measured directly on the plate by using a fluorescent plate reader (CeliLux Perkin Elmer).
After 5 min CHO cells were activated with orexin-A, 3 nM while HEK-293 cells were activated with orexin-B, 10 nM.
The antagonistic activity has been expressed as pKb (co-logarithm of the apparent dissociation constant calculated by using the modified Cheng Prusoff equation).

Row | Compound | Kb [nM]
1 | Cc1nc(C(=O)N2CCC3(CC3)CC2CNc2ccc(Cl)cn2)c(-c2ccccc2)s1 (racemic) [Compound 4, (±) (5-((5-chloropyridin-2-ylamino)methyl)-6-azaspiro[2.5]octan-6-yl)(2-methyl-5-phenylthiazol-4-yl)methanone] | 25.1
2 | Cc1nc(C(=O)N2CCC3(CC3)CC2CNc2ccc(Cl)cn2)c(-c2ccc(F)cc2)s1 (racemic) [Compound 10, (±) (5-((5-chloropyridin-2-ylamino)methyl)-6-azaspiro[2.5]octan-6-yl)(5-(4-fluorophenyl)-2-methylthiazol-4-yl)methanone] | 39.8
3 | Cc1ccc(-n2nccn2)c(C(=O)N2CCC3(CC3)CC2CNc2ccc(Cl)cn2)c1 (racemic) [Compound 11, (±)(5-((5-chloropyridin-2-ylamino)methyl)-6-azaspiro[2.5]octan-6-yl)(5-methyl-2-(2H-1,2,3-triazol-2-yl)phenyl)methanone] | 31.6
4 | Cc1ccc(-c2ncccn2)c(C(=O)N2CCC3(CC3)CC2CNc2ccc(Cl)cn2)c1 (racemic) [Compound 12, (±)(5-((5-chloropyridin-2-ylamino)methyl)-6-azaspiro[2.5]octan-6-yl)(5-methyl-2-(pyrimidin-2-yl)phenyl)methanone] | 50.1
5 | Cc1cccc(NCC2CC3(CCCC3)CCN2C(=O)c2nc(C)sc2-c2ccccc2)n1 (racemic) [Compound 54, (±)(2-methyl-5-phenylthiazol-4-yl)(7-(((6-methylpyridin-2-4amino)methyl)-8-azaspiro[4.5]decan-8-yl)methanone] | 63.1
6 | Cc1nc(C(=O)N2CCC3(CCCC3)CC2CNc2ccc(Cl)cn2)c(-c2ccccc2)s1 (racemic) [Compound 55, (±)(7-(((5-chloropyridin-2-yl)amino)methyl)-8-azaspiro[4.5]decan-8-yl)(2-methyl-5-phenylthiazol-4-yl)methanone] | 39.8
7 | Cc1cccc(NCC2CC3(CCN2C(=O)c2nc(C)sc2-c2ccccc2)CC3)n1 (single isomer, unassigned) [Compound 3, (2-methyl-5-phenylthiazol-4-yl)(5-((6-methylpyridin-2-ylamino)methyl)-6-azaspiro[2.5]octan-6-yl)methanone] | 39.8
8 | Cc1ccc(-c2ncccn2)c(C(=O)N2CCC3(CC3)C[C@H]2CNc2ccc(Cl)cn2)c1 (single isomer, unassigned) [Compound 13] | 25.1
9 | Cc1nc(C(=O)N2CCC3(CC3)C[C@H]2CNc2ccc(F)cn2)c(-c2ccccc2)s1 [Compound 16, (S)-(5-(((5-fluoropyridin-2-yl)amino)methyl)-6-azaspiro[2.5]octan-6-yl)(2-methyl-5-phenylthiazol-4-yl)methanone] | 63.1
10 | Cc1ccc(-n2nccn2)c(C(=O)N2CCC3(CC3)C[C@H]2CNc2cccc(Cl)n2)c1 [Compound 19, (S)-(5-(((6-chloropyridin-2-yl)amino)methyl)-6-azaspiro[2.5]octan-6-yl)(5-methyl-2-(2H-1,2,3-triazol-2-yl)phenyl)methanone] | 126
11 | Cc1ccc(-n2nccn2)c(C(=O)N2CCC3(CC3)C[C@H]2CNc2cccc(C(F)(F)F)n2)c1 [Compound 20, (S)-(5-methyl-2-(2H-1,2,3-triazol-2-yl)phenyl)(5-(((6-(trifluoromethyl)pyridin-2-yl)amino)methyl)-6-azaspiro[2.5]octan-6-yl)methanone] | 50.1
12 | Cc1ccnc(NC[C@@H]2CC3(CCN2C(=O)c2nc(C)sc2-c2ccccc2)CC3)n1 [Compound 21, (S)-(2-methyl-5-phenylthiazol-4-yl)(5-(((4-methylpyrimidin-2-yl)amino)methyl)-6-azaspiro[2.5]octan-6-yl)methanone] | 126
13 | Cc1cnc(NC[C@@H]2CC3(CCN2C(=O)c2nc(C)sc2-c2ccccc2)CC3)nc1 [Compound 23, (S)-(2-methyl-5-phenylthiazol-4-yl)(5-(((5-methylpyrimidin-2-yl)amino)methyl)-6-azaspiro[2.5]octan-6-yl)methanone] | 50.1
